# Target: T1, human glucagon receptor (Homo sapiens, UniProt P47871)
# T1 construct: expressed in transfected cells; host or cells: CHO-K1 cells, stably transfected
# Assay: Glucagon cAMP assay (Cisbio cAMP detection)
# Format: cell-based
# Procedure: The Cisbio cAMP detection assay is used to determine the ability of punitive glucagon antagonist to block glucagon induced cAMP production. Potential glucagon antagonists are re-suspended and diluted in 100% DMSO. Prior to use in the Glucagon cAMP assay 100×DMSO compound stocks are diluted 20× with DMEM-F12 media (Invitrogen) containing either 0.1% or 4% BSA. 2 uls of 5× compound stocks are spotted into the appropriate wells of low binding white solid bottom 384 well plates (Corning). 2 uls of 5% DMSO or known glucagon antagonist are added to each plate to define the assay window. CHOK1 cells stably transfected with the human glucagon receptor are removed from culture flasks with cell dissociation buffer. Cell pellets are re-suspended, at a concentration of 8.3e^5 cells/ml in DMEM-F12 with or without 4% BSA and 200 uM IBMX. 6 uls of cell suspensions are added to the assay plates. Plates are incubated for 20 min at room temperature prior to the addition of a 100 pM challenge dose of glucagon. On a separate plate glucagon dose response curves are run to determine the EC50 of glucagon. After a 30 min room temperature incubation the reaction is terminated by the addition of lysis buffer containing the cAMP detection reagents. Plates are incubated for an additional 60 min at room temperature prior to being read on the Perkin Elmer fluorescent plate reader. Raw is converted to nM of cAMP produced based on a cAMP standard curve. Converted data is then analyzed using the Pfizer data analysis program. IC50 values are determined from the generated sigmoidal dose response curves. Kb values are the calculated using a modified Cheng-Prusoff equation.
# T1 sequence (P47871 26-477): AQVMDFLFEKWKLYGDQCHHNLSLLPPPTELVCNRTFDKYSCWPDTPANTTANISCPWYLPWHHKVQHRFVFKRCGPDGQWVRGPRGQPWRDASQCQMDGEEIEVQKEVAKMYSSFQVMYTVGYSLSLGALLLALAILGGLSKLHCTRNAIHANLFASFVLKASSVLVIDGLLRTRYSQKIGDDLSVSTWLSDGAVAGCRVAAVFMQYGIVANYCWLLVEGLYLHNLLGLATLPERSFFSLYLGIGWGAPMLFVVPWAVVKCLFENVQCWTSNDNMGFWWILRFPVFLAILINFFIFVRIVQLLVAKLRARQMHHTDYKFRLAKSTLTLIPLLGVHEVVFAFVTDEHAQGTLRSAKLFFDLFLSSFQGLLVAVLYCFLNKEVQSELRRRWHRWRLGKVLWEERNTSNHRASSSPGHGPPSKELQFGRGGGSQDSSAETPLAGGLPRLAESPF
row,SMILES,Kb
1,"O=C(O)CCNC(=O)c1ccc(NC(c2cnc(-c3ccc(C(F)(F)F)cc3)nc2)C2CCCCC2)nc1 (racemic) [Example 4.2, (+/−)-N-({6-[(cyclohexyl{2-[4-(trifluoromethyl)phenyl]pyrimidin-5-yl}methyl)amino]pyridin-3-yl}carbonyl)-beta-alanine]",31 nM
2,"CCCC(Nc1cnc(-c2ccc(C(F)(F)F)cc2)cn1)c1ccc(C(=O)NCCC(=O)O)cc1 (racemic) [Example 4.3, (±)-3-(4-(1-((5-(4-(trifluoromethyl)phenyl)pyrazin-2-yl)amino)butyl)benzamido)propanoic acid]",99 nM
3,"O=C(O)CCNC(=O)c1ccc(NC(c2ccc(-c3ccc(C(F)(F)F)cc3)cc2)C2CCOCC2)nc1 (racemic) [Example 4.7, (±)-3-(6-(((tetrahydro-2H-pyran-4-yl)(4′-(trifluoromethyl)-[1,1′-biphenyl]-4-yl)methyl)amino)nicotinamido)propanoic acid]",220 nM
4,"CCCC(Nc1ccc(C(=O)NCCC(=O)O)cn1)c1ccc(-c2ccc(C(F)(F)F)cc2)c(C#N)c1 (racemic) [Example 4.8, (±)-3-(6-((1-(2-cyano-4′-(trifluoromethyl)-[1,1′-biphenyl]-4-yl)butyl)amino)nicotinamido)propanoic acid]",200 nM
5,"O=C(O)CCNC(=O)c1ccc(NC(CCC(F)(F)F)c2ccc(-c3ccc(C(F)(F)F)cc3)cc2)nc1 (racemic) [Example 4.13, (+/−)-3-(6-(4,4,4-trifluoro-1-(4′-(trifluoromethyl)biphenyl-4-yl)butylamino)nicotinamido)propanoic acid]",700 nM
6,"CC(C)CC(Nc1ccc(C(=O)NCCC(=O)O)cn1)c1ccc(-c2ccc(C(F)(F)F)cn2)cc1 (racemic) [Example 4.22, (+/−)-3-(6-(3-methyl-1-(4-(5-(trifluoromethyl)pyridin-2-yl)phenyl)butylamino)nicotinamido)propanoic acid]",53 nM
7,"CC(C)CC(Nc1ccc(C(=O)N(C)CCC(=O)O)cn1)c1ccc(-c2ccc(C(F)(F)F)cc2)cc1 (single isomer, unassigned) [Example 4.6, 3-(N-methyl-6-((3-methyl-1-(4′-(trifluoromethyl)-[1,1′-biphenyl]-4-yl)butyl)amino)nicotinamido)propanoic acid (single enantiomer)]",53 nM
8,"CC(C)C(Nc1ccc(C(=O)NCCC(=O)O)cn1)c1ccc(-c2ccc(C(F)(F)F)cc2)cc1 (single isomer, unassigned; (+)) [Example 1.14, (+)-3-(6-(2-methyl-1-(4′-(trifluoromethyl)biphenyl-4-yl)propylamino)nicotinamido)propanoic acid]",990 nM
9,"CC(C)C(Nc1ccc(C(=O)NCCC(=O)O)cn1)c1ccc(-c2ccc(C(F)(F)F)cc2)cc1 (single isomer, unassigned; (-)) [Example 1.15, (−)-3-(6-(2-methyl-1-(4′-(trifluoromethyl)biphenyl-4-yl)propylamino)nicotinamido) propanoic acid]",78 nM
10,"CC(C)CC(Nc1ncc(C(=O)NCCC(=O)O)cn1)c1ccc(-c2ccc(C(F)(F)F)cc2)cc1 (single isomer, unassigned; isomer 1) [Example 1.5, 3-(2-(3-methyl-1-(4′-(trifluoromethyl)biphenyl-4-yl)butylamino)pyrimidine-5-carboxamido)propanoic acid, Isomer 1]",2900 nM
11,"CCCC(Nc1ccc(C(=O)NCCC(=O)O)cn1)c1ccc(-c2ccc(C(F)(F)F)cc2)cc1 (single isomer, unassigned; isomer 1) [Example 1.8, 3-(6-(1-(4′-(trifluoromethyl)biphenyl-4-yl)butylamino)nicotinamido) propanoic acid, Isomer 1]",1000 nM
12,"CCC(Nc1ccc(C(=O)NCCC(=O)O)cn1)c1ccc(-c2ccc(C(F)(F)F)cc2)cc1 (single isomer, unassigned; isomer 1) [Example 1.12, 3-(6-(1-(4′-(trifluoromethyl)biphenyl-4-yl)propylamino)nicotinamido) propanoic acid, Isomer 1]",560 nM
13,"CC(C)CC(Nc1cnc(C(=O)NCCC(=O)O)cn1)c1ccc(-c2ccc(C(F)(F)F)cc2)cc1 (single isomer, unassigned; isomer 1) [Example 1.17, 3-(5-(3-methyl-1-(4′-(trifluoromethyl)biphenyl-4-yl)butylamino)pyrazine-2-carboxamido)propanoic acid, Isomer 1]",1100 nM
14,"Cc1cc(NC(CC(C)C)c2ccc(C(=O)NCCC(=O)O)cn2)cc(C)c1-c1ccc(C(F)(F)F)cc1 (single isomer, unassigned; isomer 1) [Example 2.2, 3-(6-(1-(2,6-dimethyl-4′-(trifluoromethyl)biphenyl-4-ylamino)-3-methylbutyl)nicotinamido)propanoic acid, Isomer 1]",54 nM
15,"CC(C)CC(Nc1ccc(-c2ccc(C(F)(F)F)cc2)cc1)c1ccc(C(=O)NCCC(=O)O)cn1 (single isomer, unassigned; isomer 1) [Example 2.5, 3-(6-(3-methyl-1-(4′-(trifluoromethyl)biphenyl-4-ylamino)butyl)nicotinamido)propanoic acid, Isomer 1]",760 nM
16,"CCCC(Nc1cnc(-c2ccc(C(F)(F)F)cc2)nc1)c1ccc(C(=O)NCCC(=O)O)cc1 (single isomer, unassigned; isomer 1) [Example 2.16, 3-(4-(1-(2-(4-(trifluoromethyl)phenyl)pyrimidin-5-ylamino)butyl)benzamido)propanoic acid, Isomer 1]",120 nM
17,"Cc1cc(NC(CC(C)C)c2ccc(C(=O)NCCC(=O)O)cn2)cnc1-c1ccc(Cl)cc1 (single isomer, unassigned; isomer 1) [Example 4.16, 3-(6-(1-(6-(4-chlorophenyl)-5-methylpyridin-3-ylamino)-3-methylbutyl)nicotinamido)propanoic acid, Isomer 1]",180 nM
18,"CC(C)C[C@@H](Nc1ccc(C(=O)NCCC(=O)O)cn1)c1ccc(-c2ccc(C(F)(F)F)cc2)nc1 (single isomer, unassigned; isomer 1) [Example 4.20, 3-(6-(3-methyl-1-(6-(4-(trifluoromethyl)phenyl)pyridin-3-yl)butylamino)nicotinamido)propanoic acid, Isomer 1]",61 nM
19,"CC(C)CC(Nc1ncc(C(=O)NCCC(=O)O)cn1)c1ccc(-c2ccc(C(F)(F)F)cc2)cc1 (single isomer, unassigned; isomer 2) [Example 1.6, 3-(2-(3-methyl-1-(4′-(trifluoromethyl)biphenyl-4-yl)butylamino)pyrimidine-5-carboxamido)propanoic acid, Isomer 2]",210 nM
20,"CCCC(Nc1ccc(C(=O)NCCC(=O)O)cn1)c1ccc(-c2ccc(C(F)(F)F)cc2)cc1 (single isomer, unassigned; isomer 2) [Example 1.9, 3-(6-(1-(4′-(trifluoromethyl)biphenyl-4-yl)butylamino)nicotinamido) propanoic acid, Isomer 2]",130 nM
21,"CCC(Nc1ccc(C(=O)NCCC(=O)O)cn1)c1ccc(-c2ccc(C(F)(F)F)cc2)cc1 (single isomer, unassigned; isomer 2) [Example 1.13, 3-(6-(1-(4′-(trifluoromethyl)biphenyl-4-yl)propylamino)nicotinamido) propanoic acid, Isomer 2]",150 nM

# Source: US8809342B2, “Glucagon receptor modulators” (Pfizer Inc., priority 2010, dated 2014)
